#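 Where inhibition never reached the appropriate level, the endpoint shown equals the highest concentration tested. Otherwise, values were interpolated linearly from a five-concentration, 48-hour dose response in 96-well plates. The concentration for 50% growth inhibition is given as GI50. TGI: total growth inhibition.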
# Experiments:
# Experiment in all cases: NCI tumour cell line growth inhibition, 48 h
# BT-549 breast = system: BT-549 breast
# MOLT-4 leukemia = system: MOLT-4 leukemia
# RXF 393 renal = system: RXF 393 renal
# SR leukemia = system: SR leukemia
# A498 renal = system: A498 renal
# TK-10 renal = system: TK-10 renal
# SF-539 CNS = system: SF-539 CNS
# OVCAR-3 ovarian = system: OVCAR-3 ovarian
# HS 578T breast = system: HS 578T breast
# IGROV1 ovarian = system: IGROV1 ovarian
# PC-3 prostate = system: PC-3 prostate
# SF-268 CNS = system: SF-268 CNS
# UO-31 renal = system: UO-31 renal
# NCI-H522 lung = system: NCI-H522 lung
# NCI-H460 lung = system: NCI-H460 lung
# MCF7 breast = system: MCF7 breast
# NCI/ADR-RES ovarian = system: NCI/ADR-RES ovarian
# SK-MEL-28 melanoma = system: SK-MEL-28 melanoma
# M14 melanoma = system: M14 melanoma
# ACHN renal = system: ACHN renal
# DU-145 prostate = system: DU-145 prostate
# SN12C renal = system: SN12C renal
# HOP-62 NSCLC = system: HOP-62 NSCLC
# OVCAR-4 ovarian = system: OVCAR-4 ovarian
# OVCAR-5 ovarian = system: OVCAR-5 ovarian
# HOP-92 NSCLC = system: HOP-92 NSCLC
# MALME-3M melanoma = system: MALME-3M melanoma
# U251 CNS = system: U251 CNS
# LOX IMVI melanoma = system: LOX IMVI melanoma
# K-562 leukemia = system: K-562 leukemia
# HL-60(TB) leukemia = system: HL-60(TB) leukemia
# HT29 colon = system: HT29 colon
# T-47D breast = system: T-47D breast
# NCI-H226 lung = system: NCI-H226 lung
# RPMI-8226 leukemia = system: RPMI-8226 leukemia
# SNB-75 CNS = system: SNB-75 CNS
# SW-620 colon = system: SW-620 colon
# SK-MEL-2 melanoma = system: SK-MEL-2 melanoma
# SF-295 CNS = system: SF-295 CNS
# HCC-2998 colon = system: HCC-2998 colon
# SK-OV-3 ovarian = system: SK-OV-3 ovarian
# EKVX NSCLC = system: EKVX NSCLC
# MDA-MB-231 breast = system: MDA-MB-231 breast
# NCI-H23 lung = system: NCI-H23 lung
# HCT-15 colon = system: HCT-15 colon
# CAKI-1 renal = system: CAKI-1 renal
# UACC-62 melanoma = system: UACC-62 melanoma
# KM12 colon = system: KM12 colon
# CCRF-CEM leukemia = system: CCRF-CEM leukemia
# OVCAR-8 ovarian = system: OVCAR-8 ovarian
# HCT-116 colon = system: HCT-116 colon
# COLO 205 colon = system: COLO 205 colon
# SK-MEL-5 melanoma = system: SK-MEL-5 melanoma
# A549 NSCLC = system: A549 NSCLC
# 786-0 renal = system: 786-0 renal
# SNB-19 CNS = system: SNB-19 CNS
# UACC-257 melanoma = system: UACC-257 melanoma
structure (smiles),measurement,setting,value
O=C(N/N=C/c1ccco1)c1[nH]c2ccc(Br)cc2c1-c1ccccc1,GI50,BT-549 breast,220 nM
same,TGI,BT-549 breast,1190 nM
same,GI50,MOLT-4 leukemia,265 nM
same,TGI,MOLT-4 leukemia,11.7 µM
same,GI50,RXF 393 renal,348 nM
same,TGI,RXF 393 renal,16.9 µM
same,GI50,SR leukemia,52.7 nM
same,TGI,SR leukemia,5.1 µM
same,GI50,A498 renal,8.76 µM
same,TGI,A498 renal,25.4 µM
same,GI50,TK-10 renal,1610 nM
same,TGI,TK-10 renal,18 µM
same,GI50,SF-539 CNS,91 nM
same,TGI,SF-539 CNS,482 nM
same,GI50,OVCAR-3 ovarian,281 nM
same,TGI,OVCAR-3 ovarian,14.9 µM
same,GI50,HS 578T breast,234 nM
same,TGI,HS 578T breast,29.5 µM
same,GI50,IGROV1 ovarian,212 nM
same,TGI,IGROV1 ovarian,12.8 µM
same,GI50,PC-3 prostate,309 nM
same,TGI,PC-3 prostate,15.9 µM
same,GI50,SF-268 CNS,975 nM
same,TGI,SF-268 CNS,27.9 µM
same,GI50,UO-31 renal,267 nM
same,TGI,UO-31 renal,15.4 µM
same,GI50,NCI-H522 lung,42.5 nM
same,TGI,NCI-H522 lung,225 nM
same,GI50,NCI-H460 lung,147 nM
same,TGI,NCI-H460 lung,1700 nM
same,GI50,MCF7 breast,67.3 nM
same,TGI,MCF7 breast,11.1 µM
same,GI50,NCI/ADR-RES ovarian,187 nM
same,TGI,NCI/ADR-RES ovarian,2800 nM
same,GI50,SK-MEL-28 melanoma,735 nM
same,TGI,SK-MEL-28 melanoma,21.1 µM
same,GI50,M14 melanoma,165 nM
same,TGI,M14 melanoma,21.9 µM
same,GI50,ACHN renal,303 nM
same,TGI,ACHN renal,14.7 µM
same,GI50,DU-145 prostate,309 nM
same,TGI,DU-145 prostate,12 µM
same,GI50,SN12C renal,201 nM
same,TGI,SN12C renal,4.53 µM
same,GI50,HOP-62 NSCLC,326 nM
same,TGI,HOP-62 NSCLC,15.4 µM
same,GI50,OVCAR-4 ovarian,988 nM
same,TGI,OVCAR-4 ovarian,26.2 µM
same,GI50,OVCAR-5 ovarian,320 nM
same,TGI,OVCAR-5 ovarian,17.6 µM
same,GI50,HOP-92 NSCLC,763 nM
same,TGI,HOP-92 NSCLC,13.2 µM
same,GI50,MALME-3M melanoma,211 nM
same,TGI,MALME-3M melanoma,21.3 µM
same,GI50,U251 CNS,192 nM
same,TGI,U251 CNS,11.8 µM
same,GI50,LOX IMVI melanoma,89.9 nM
same,TGI,LOX IMVI melanoma,11.7 µM
same,GI50,K-562 leukemia,48.5 nM
same,TGI,K-562 leukemia,11.9 µM
same,GI50,HL-60(TB) leukemia,135 nM
same,TGI,HL-60(TB) leukemia,503 nM
same,GI50,HT29 colon,143 nM
same,TGI,HT29 colon,1230 nM
same,GI50,T-47D breast,1410 nM
same,TGI,T-47D breast,26.9 µM
same,GI50,NCI-H226 lung,327 nM
same,TGI,NCI-H226 lung,10.4 µM
same,GI50,RPMI-8226 leukemia,200 nM
same,TGI,RPMI-8226 leukemia,> 26.9 µM
same,GI50,SNB-75 CNS,177 nM
same,TGI,SNB-75 CNS,5.77 µM
same,GI50,SW-620 colon,105 nM
same,TGI,SW-620 colon,17.3 µM
same,GI50,SK-MEL-2 melanoma,302 nM
same,TGI,SK-MEL-2 melanoma,22.4 µM
same,GI50,SF-295 CNS,46.4 nM
same,TGI,SF-295 CNS,11.1 µM
same,GI50,HCC-2998 colon,240 nM
same,TGI,HCC-2998 colon,9.41 µM
same,GI50,SK-OV-3 ovarian,403 nM
same,TGI,SK-OV-3 ovarian,16.9 µM
same,GI50,EKVX NSCLC,1300 nM
same,TGI,EKVX NSCLC,27.3 µM
same,GI50,MDA-MB-231 breast,292 nM
same,TGI,MDA-MB-231 breast,2970 nM
same,GI50,NCI-H23 lung,403 nM
same,TGI,NCI-H23 lung,14.2 µM
same,GI50,HCT-15 colon,85.9 nM
same,TGI,HCT-15 colon,11.8 µM
same,GI50,CAKI-1 renal,251 nM
same,TGI,CAKI-1 renal,16.5 µM
same,GI50,UACC-62 melanoma,72.4 nM
same,TGI,UACC-62 melanoma,13.6 µM
same,GI50,KM12 colon,281 nM
same,TGI,KM12 colon,12.7 µM
same,GI50,CCRF-CEM leukemia,238 nM
same,TGI,CCRF-CEM leukemia,27.1 µM
same,GI50,OVCAR-8 ovarian,162 nM
same,TGI,OVCAR-8 ovarian,3.23 µM
same,GI50,HCT-116 colon,106 nM
same,TGI,HCT-116 colon,10.7 µM
same,GI50,COLO 205 colon,226 nM
same,TGI,COLO 205 colon,695 nM
same,GI50,SK-MEL-5 melanoma,133 nM
same,TGI,SK-MEL-5 melanoma,644 nM
same,GI50,A549 NSCLC,191 nM
same,TGI,A549 NSCLC,14.3 µM
same,GI50,786-0 renal,411 nM
same,TGI,786-0 renal,12.6 µM
same,GI50,SNB-19 CNS,252 nM
same,TGI,SNB-19 CNS,14.7 µM
same,GI50,UACC-257 melanoma,437 nM
same,TGI,UACC-257 melanoma,17.3 µM

# Source: PubChem BioAssay (NCI)
